The values that follow come from a melting point compilation (Tetko et al.; mined from patent text by program, amines drawn as free bases though some values may be those of a salt).

What is called melting point is the temperature of the solid-liquid transition. Regarding `COc1cc(OC)c2cc(-c3ccccc3)c(=O)[nH]c2c1`, the melting point lay in the range of 257 to 258 °C. Then `CCNC(=O)c1c([Si](C)(C)C)ccc(C(=O)OC)c1Cl`, with 103 to 104 °C. Then `CC(=O)OCC1OC(Oc2ccsc2Cc2ccc(OC(F)(F)F)cc2)C(OC(C)=O)C(OC(C)=O)C1OC(C)=O` (centres undefined), with 113 to 114 °C. Under `CC1C(c2ccccc2)OC(=O)N1C(=O)CC1c2ccccc2CCc2ccccc21` (centres undefined) stands 130 to 131 °C; under `CCCCOc1ccc(-c2ccc([C@H]3CC[C@H](CCC)CC3)c(C#N)c2C#N)cc1`, 115 °C.

As to `Cc1ccnc(C(=O)n2cc(CC(=O)O)c3cc(C)ccc32)c1`, the melting point fell in the range of 220 to 226 °C. Under `NS(=O)(=O)c1ccc(-c2cnn(-c3ccc(F)c(F)c3)c(=O)c2Oc2ccc(F)cc2)cc1` stands 224 to 226 °C; under `CS(=O)(=O)NC(=O)/C(C#N)=C/c1cn(-c2cc(C(F)(F)F)cc(C(F)(F)F)c2)nc1-c1cccc(Cl)c1`, 273 to 275 °C; under `COC(C)(CC(=O)Nc1cccc(OCc2ccccc2)c1)OC`, 83 °C. Under `COc1cc(Oc2ccc(Cl)cc2)ccc1[N+](=O)[O-]` stands 88 to 89 °C; under `N#Cc1ccc(C=CC(=O)N2CCc3c([nH]c4ccccc34)C2c2ccc3c(c2)OCO3)cc1` (centres undefined), 167 °C; under `CSC(=C[N+](=O)[O-])Nc1ccc(C#N)cc1`, 188 to 190 °C. Under `Fc1ccccc1NC(=S)Nc1ncccc1OCc1c(F)cccc1Cl` stands 145 to 147 °C. For the molecule `CCC1=C(c2cccc(F)c2)C(=O)N(c2ccc(Cl)c(C(F)(F)F)c2)C1`, the melting point lay within 126 to 129 °C. Then `N=C(Nc1cccc(NC(=O)C=Cc2ccccc2)c1)c1ccccc1`, with 115 to 117 °C; and `CNC(=O)Nc1cc(OC)c(-c2ccc(C[C@H](NC(=O)c3c(Cl)cccc3Cl)C(=O)O)cc2)c(OC)c1`, with 206 to 207 °C; and `CC1(CSc2ccccc2)COC2(CCCCCCCCCCC2)OO1` (centres undefined), with 89 °C.

`Cc1ccc(-c2nc(NCCN3CCOCC3)cc(Sc3ccc(Cl)cc3)n2)cc1` came in with a melting point of 141 to 142 °C.

`COc1cc(OC)nc(NC#N)n1` had a melting point of 202 °C. Molecule `COc1cc2c(cc1O)CCN(C(=O)c1ccccc1OC)C2=O` returned a melting point of 199 to 200 °C. Then `NC(=O)c1cc2c(Oc3cccc(C(F)(F)F)c3)cncc2s1`, with 175 to 176 °C. As for `CCN1CCc2ccc(Nc3ncc(Cl)c(Nc4cc(Cl)ccc4C(=O)NC)n3)cc2CC1`, the melting point is 223 °C. Then `CCOC(=O)c1cccc(Cc2c(C(=O)OCC)n(Cc3cc4c(cc3CC)OCO4)c3ccc(OCOC)cc3c2=O)c1`, with 89 to 96 °C; and `Nc1ccccc1Oc1ccccc1Cl`, with 44 to 45 °C; and `COc1cc2ncc(N[C@@H]3C[C@H]4CC[C@@H]3C4)nc2cc1OC`, with 184 to 186 °C. Then `CC(=O)N1CCN(CCCOc2ccc(NC(=O)c3cc(F)cc(N4CCCCC4)c3)c3ccccc23)CC1`, with 210 to 211 °C; and `NC(=NOC1CCCCO1)Nc1c(Cl)cccc1Cl` (centres undefined), with 178 to 180 °C; and `CS(=O)(=O)c1ccc(-c2sc(COc3ccccc3Cl)nc2-c2ccc(F)cc2)cc1`, with 189 to 191 °C. Regarding `CN(C)CCCC1(C)CCc2cccc(O)c2O1` (centres undefined), the melting point was in the range of 127 to 133 °C.

For the molecule `CC(C)N1C(=O)NC(c2ccc3c(c2)OCCO3)c2cc3c(cc21)OCCO3` (centres undefined), the melting point was in the range of 92 to 95 °C. On to `NC(=O)c1ncn2c1[C@@H]1CCN1C(=O)c1c-2ccc(F)c1Cl`, for which the melting point fell in the range of 296 to 298 °C. As for `Cc1ccc(S(=O)(=O)c2ccccc2[N+](=O)[O-])cc1`, the melting point lay within 155 to 156 °C. Under `CCCCc1ncc(/C(C)=C(\Cc2ccccc2)C(=O)O)n1Cc1ccccc1Cl` stands 206 to 207 °C.

`O=C(OCc1ccccc1)On1nnc2ccccc21` yielded a melting point of 130 to 131 °C. Then `COC(=O)c1cc(OC)c(Cl)cc1N`, with 63 to 64 °C; and `COC(=O)Cc1noc2cc(F)ccc12`, with 60 to 61 °C; and `Cc1csc(C(O)(c2nccs2)C(F)(F)F)n1` (centres undefined), with 89 to 90 °C. Under `O=C(O)c1ccc(S(=O)(=O)n2cccc2)s1` stands 191 to 194 °C. Under `O=S(=O)(c1ccc(F)cc1)N1CCCC1c1ccc(F)cc1` (racemic) stands 121 °C; under `Cn1cnc(COc2nn3c(-c4cccc(F)c4)nnc3cc2-c2ccccc2)n1`, 250 to 251 °C; under `CC1Cc2cc3c(cc2C(c2ccc([N+](=O)[O-])cc2)=NN1C(=O)NCCCl)OCO3` (centres undefined), 222 to 223 °C. On to `CCOC(=O)C(C)(C)Oc1ccc(CNc2ccccn2)cc1`, for which the melting point is 78 to 79 °C. Then `O=C(NN1CCN(C(=O)Nc2ccccc2)CC1)c1ccc(F)cc1`, with 263 to 266 °C. Under `CCc1c(-c2ccccc2)nc(C(C)C)c(C#CI)c1-c1ccc(F)cc1` stands 117 to 119 °C. Under `Cc1nc2c(N)nc3c(c2n1CCOCCS(C)(=O)=O)CCCC3` stands 173 to 175 °C.

With `CC(C)n1nc(-c2c(-c3ccccc3)nn3ccc(Oc4ccccn4)cc23)ccc1=O`, the melting point was in the range of 140 to 142 °C. Under `Cc1ccc(-c2ccccc2)cc1C#N` stands 71 to 73 °C. Under `CNCCCOc1cc(F)c(-c2c(Cl)nc(-c3cnccn3)nc2N[C@@H](C)C(F)(F)F)c(F)c1` stands 48 to 50 °C; under `CCOC(=O)C1(C(=O)OCC)Oc2c(ccc(OC)c2Cl)C1O` (centres undefined), 116 to 117 °C. In the case of `CCCN([C@H]1COc2c(F)ccc(C(N)=O)c2C1)C(C)(C)C`, the melting point was in the range of 70 to 75 °C. Under `CN(C)c1ncc(NC(=O)c2cc3cc(C(F)(F)F)cnc3n2Cc2cccc(F)c2)cn1` stands 236 to 238 °C.

Molecule `CN(c1ncnc2[nH]ccc12)C1CCCCC1` came in with a melting point of 177 to 180 °C. Then `COc1ccc(C2(C(=O)Oc3ccc(C(=O)NO)cc3)CCCCC2)cc1`, with 127 to 129 °C; and `N#CCOC(=O)c1ccc(C(c2ccccc2)c2ccccc2)cn1`, with 95 to 98 °C. Under `O=C(Cn1cccc(OCc2ccccc2)c1=O)ON1C(=O)CCC1=O` stands 187 to 188 °C; under `CCn1c2c(nc(-c3ccc(Cl)cc3)c1=O)CCCC2`, 110 to 113 °C. Under `C=C(C)C(=O)OCCNC(=O)Nc1nc(=O)cc(C)[nH]1` stands 208 °C; under `COc1ccc(C)cc1-c1cc2ccccc2[nH]1`, 119 °C. Take `C#Cc1cn(-c2c(Cl)cc(C(F)(F)F)cc2Cl)nc1C(F)(F)F`: the melting point fell in the range of 95 to 98 °C.

`Cc1cc(C)cc(OCC(=O)c2ccc(C(C)C)cc2)c1`: the melting point fell in the range of 68 to 69 °C.

Molecule `CCCCc1[nH]c2ccc([N+](=O)[O-])cc2c1C(=O)c1ccc(O)cc1` yielded a melting point of 230 °C. Then `Cc1cc(-c2cc(C(F)(F)F)n3ncc(C(=O)Nc4cccc(S(C)(=O)=O)c4)c3n2)ccc1C(F)(F)F`, with 233 °C; and `CN1CCN(CCCC2CCN(C(=O)N3c4ccccc4C(=O)Nc4cccnc43)CC2)CC1`, with 213 to 214 °C; and `Cc1onc(-c2c(F)cccc2Cl)c1C(=O)CBr`, with 74 to 75 °C.

As to `CCCC(O)c1cnc2nc(C)c(OCC)cc2c1Nc1ccc(OC)cc1` (centres undefined), the melting point is 120 to 124 °C. Under `COCCn1ccc2cc(NC(=O)/C=C/c3ccc(C(C)(C)C)cc3)ccc21` stands 138 °C. Then `O=C(O)C1=Cc2cc(Cl)c(Sc3ccc(Cl)cc3)cc2OC1C(F)(F)F` (centres undefined), with 252 to 253 °C. Under `CCNC(=O)NCCSCC(=O)NC/C=C\COc1cccc(CN2CCCCC2)c1` stands 90.2 to 91.2 °C; under `CC1=C(C)C(=O)C(NCc2ccccc2)=CC1=O`, 101 to 102 °C; under `CCCCCCCNC(=O)Nc1ccc(N(C)C)cc1C(=O)NCC1CCN(C(c2ccc(Cl)cc2)c2ccc(Cl)cc2)CC1`, 216 °C. Molecule `OCC1OC(n2cnc3c(NCC(c4ccccc4)c4ccccc4)nc(Cl)nc32)C(O)C1O` (centres undefined) yielded a melting point of 120 to 123 °C. Then `ON=Cc1cc(-c2ncc(C(F)(F)F)cc2Cl)ccc1Cl`, with 173 to 174 °C; and `COC1(c2cc(F)cc(Sc3ccc(C(C)ONC(N)=O)cc3)c2)CCOCC1` (centres undefined), with 84 to 85 °C; and `CS(=O)(=O)c1ccc(N2CC(CO)OC2=O)cc1` (centres undefined), with 177 to 180 °C. Under `Nc1nc(=O)n(CC2CCCO2)cc1F` (centres undefined) stands 168 to 170 °C; under `NC1=NCc2c[nH]c3cccc1c23`, 233 to 235 °C. Then `N#Cc1ccc(Cn2cncn2)cc1-c1ccc(OS(N)(=O)=O)c(Cl)c1`, with 133 to 136 °C; and `CCc1ncnc(O)c1I`, with 191 to 192 °C. `O=C(O)c1ccc(C(F)F)c2ccccc12`: the melting point was in the range of 179 to 180 °C.

Turning to `Cc1c2ccc(-c3nn(C(C)c4oc5ccccc5c(=O)c4-c4cccc(F)c4)c4ncnc(N)c34)cc2nn1C` (centres undefined), the melting point is 269 to 274 °C. Under `COc1cc2[nH]c(C)c(CCN3CCN(NC(=O)Nc4ccccc4)CC3)c2cc1OC` stands 170 to 173 °C; under `CCC(Oc1cc(F)ccc1F)C1=NCCN1` (centres undefined), 110 °C. Under `COC(=O)C1(CC(N)=O)C(=O)N(Cc2ccc(Br)cc2F)C(=O)c2ccccc21` (centres undefined) stands 180 to 182 °C; under `O=C(CNC1=Nc2cccc3cccc1c23)NCCCn1ccnc1`, 145 to 146 °C; under `Nc1sc2c(c1C(=O)c1ccc(Cl)cc1)CCC(O)C2` (centres undefined), 176 to 177 °C. Then `NC(=O)c1cccc(CCCBr)c1`, with 109 °C; and `COCCOc1ccc(/C=C/C(=O)O)c(OCC2CCCO2)c1` (centres undefined), with 106 to 108 °C. `Cc1onc(-c2ccccc2)c1C(=O)N[C@@H]1N=C(c2ccccc2)c2ccccc2N(C)C1=O` displayed a melting point of 123 to 126 °C.

Molecule `CCC(=O)Cc1nc2ccccc2c(=O)o1` showed a melting point of 70 to 72 °C.
